{"source": "patent US20120093836A1", "about": "“PHARMACEUTICAL COMPOSITIONS FOR TREATING METASTASIS” (UNIVERSIDAD DEL PAIS VASCO, priority 2009, published 2012)", "key": {"[1]": {"test_system": "adhesion of MB16 cells to the HSE (hepatic sinusoidal endothelium)", "test": "Tumor adhesion assay for C. albicans-induced tumor adhesion (fluorescence, BCECF-AM labelled MB16 cells on HSE)", "format": "cell-based, mouse", "conditions": "IL-1β receptor blocked, added 15 minutes before MNF", "method": "The adhesion was measured using the method based on the fluorescence measurement. The MB16 cells were resuspended in a solution of 2′,7′-bis-(2-carboxyethyl)-5.6-carboxyfluorescein acetoxymethyl ester (BCECF-AM) in DMEM-HEPES (40 μg/ml) and were incubated for 20 minutes at 37° C. The cells were then washed and resuspended in DMEM-HEPES at a concentration of 2×10^5 cells/ml. The autofluorescence of the HSE culture was determined.\nSubsequently, the HSE cells were incubated with different strains and extracts of C. albicans (5×10^5 cells/well), MNF (2 μg carbohydrate/ml), EC (2 μg carbohydrate/ml), PF (2 μg protein/ml) or commercial mannan from Saccharomyces cerevisiae (100 μg/ml) for 8 hours. The non-treated HSE cells received basal medium as control. […]\nOnce the time of adhesion ended, the co-cultures were excited with light of wavelength 488 nm and the fluorescence emitted at 530 nm by the BCEF incorporated to the tumor cells in the scanning fluorometer in plate was recorded. […] Subsequently, 1 ml of the same adhesion medium was added in each well and the fluorescence emitted was read. Thus a relative value (in arbitrary units of fluorescence intensity) could be determined with respect to the number of tumor cells added. […]"}, "TNF-α": {"test_system": "TNF-α", "test": "Production of TNF-α by the HSE (ELISA of supernatants)", "format": "cell-based, mouse", "conditions": "IL-1β receptor blocked", "method": "The concentration of TNF-α and IL-18 in the supernatants was determined using a monoclonal antibody-based commercial ELISA kit (R&D Systems) following the manufacturer's instructions. The tumor adhesion assays of C. albicans-induced tumor adhesion and B16 melanoma tumor cell proliferation assays in response to C. albicans (both described above) were performed in collaboration with the company, Pharmakine S.L.\nThe stimulation of the endothelium causes a cascade of cytokine which ends with the expression of adhesion molecules such as the VCAM-1 (Mendoza (cited at supra) 1998, Vidal-Vanaclocha et al. 2000. PNAS, 97: 734-739) wherein the tumor cells are adhered. To know whether the process triggered by the MNF which as a consequence caused the increase of the adhesion of MB16 cells to the HSE was also mediated by cytokines, the concentration of TNF-α, the cytokine which is described as one of the first and most important cytokines acting in the proinflammatory cascade described in the HSE was measured."}}, "data": [{"substance": "IL-Ra: IL-1β receptor antagonist molecule (Amgen Biologicals)", "values": [{"measurement": "effect on the increase of the tumor adhesion to the HSE induced by the MNF (in words)", "setting": "[1]", "result": "completely inhibits"}, {"measurement": "effect on the release of TNF-α by the endothelium stimulated by the mannoproteins of C. albicans (in words)", "setting": "TNF-α", "result": "partially reduces"}]}]}
